# Test results taken from US8933232B2, “1,3,4-oxadiazole and 1,3,4-thiadiazole beta-lactamase inhibitors” (priority 2012, dated 2015).
# Where a name gives a salt, the structure may show the parent alone.
# Tested on: bacterial strains that express KPC β-lactamases
# Assay: Synergy MIC / standard BLI potentiation MIC assay against strains expressing KPC β-lactamases
# Assay type: cell-based
# Conditions: in the presence of a β-lactam; comparator Avibactam
# Method in brief: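 Broth microdilution per modified CLSI M07-A9 in CAMHB, ~10^5 CFU/mL, 18-20 h at 37 °C with aeration; engineered E. coli carrying cloned β-lactamase plasmids kept in 25 μg/mL tetracycline. β-Lactam MIC read with BLI fixed at 4 μg/mL, or BLI serially diluted against fixed β-lactam; MIC = lowest concentration without visible turbidity.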
row,Compound,more active than Avibactam for at least one bacterial strain that expresses KPC β-lactamase and/or better spectrum of activity against KPC strains
1,"O=C1N2C[C@@H](CC[C@H]2c2nnc(CN3CCNCC3)o2)N1OS(=O)(=O)O [Compound 777, (2S,5R)-7-oxo-2-(5-(piperazin-1-ylmethyl)-1,3,4-oxadiazol-2-yl)-1,6-diazabicyclo[3.2.1]octan-6-yl hydrogen sulfate]",more active than Avibactam
2,"O=C1N2C[C@@H](CC[C@H]2c2nnc([C@H]3CNCCN3)o2)N1OS(=O)(=O)O [Compound 779, (2S,5R)-7-oxo-2-(5-((R)-piperazin-2-yl)-1,3,4-oxadiazol-2-yl)-1,6-diazabicyclo[3.2.1]octan-6-yl hydrogen sulfate]",more active than Avibactam
3,"C[n+]1ccc(-c2nnc([C@@H]3CC[C@@H]4CN3C(=O)N4OS(=O)(=O)[O-])o2)cc1 [Compound 782, (2S,5R)-2-(5-(1-methylpyridin-1-ium-4-yl)-1,3,4-oxadiazol-2-yl)-7-oxo-1,6-diazabicyclo[3.2.1]octan-6-yl sulfate]",more active than Avibactam
4,"N[C@H]1C[C@H](c2nnc([C@@H]3CC[C@@H]4CN3C(=O)N4OS(=O)(=O)O)s2)C1 [Compound 783, (2S,5R)-2-(5-((1r,3S)-3-aminocyclobutyl)-1,3,4-thiadiazol-2-yl)-7-oxo-1,6-diazabicyclo[3.2.1]octan-6-yl hydrogen sulfate]",more active than Avibactam
5,"N=C(N)N[C@H]1C[C@@H](c2nnc([C@@H]3CC[C@@H]4CN3C(=O)N4OS(=O)(=O)O)s2)C1 [Compound 784, (2S,5R)-2-(5-((1s,3R)-3-guanidinocyclobutyl)-1,3,4-thiadiazol-2-yl)-7-oxo-1,6-diazabicyclo[3.2.1]octan-6-yl hydrogen sulfate]",more active than Avibactam
6,"N=C(N)NCCc1nnc([C@@H]2CC[C@@H]3CN2C(=O)N3OS(=O)(=O)O)s1 [Compound 794, (2S,5R)-2-(5-(2-guanidinoethyl)-1,3,4-thiadiazol-2-yl)-7-oxo-1,6-diazabicyclo[3.2.1]octan-6-yl hydrogen sulfate]",more active than Avibactam
7,"N[C@H]1C[C@@H](c2nnc([C@@H]3CC[C@@H]4CN3C(=O)N4OS(=O)(=O)O)s2)C1 [Compound 795, (2S,5R)-2-(5-((1s,3R)-3-aminocyclobutyl)-1,3,4-thiadiazol-2-yl)-7-oxo-1,6-diazabicyclo[3.2.1]octan-6-yl hydrogen sulfate]",more active than Avibactam
